Measurements reported in article PMC8213057, “Targeting ALK2: An Open Science Approach to Developing Therapeutics for the Treatment of Diffuse Intrinsic Pontine Glioma” (Journal of Medicinal Chemistry, 2020).
Values joined by “and” are separate entries in the source; they are usually repeats but may differ in a detail not shown here. Equal entries are not always repeated. Where two headings read alike, the source gives them in different places.

Tests used:
PAK4 = PAK4 (Homo sapiens, UniProt O96013); details: 1 μM; Run 1, Run 2
EPHA1 = biological target: T1, EPHA1 (Homo sapiens, UniProt P21709); details: 1 μM; Run 1, Run 2
T1 sequence (P21709 26-976): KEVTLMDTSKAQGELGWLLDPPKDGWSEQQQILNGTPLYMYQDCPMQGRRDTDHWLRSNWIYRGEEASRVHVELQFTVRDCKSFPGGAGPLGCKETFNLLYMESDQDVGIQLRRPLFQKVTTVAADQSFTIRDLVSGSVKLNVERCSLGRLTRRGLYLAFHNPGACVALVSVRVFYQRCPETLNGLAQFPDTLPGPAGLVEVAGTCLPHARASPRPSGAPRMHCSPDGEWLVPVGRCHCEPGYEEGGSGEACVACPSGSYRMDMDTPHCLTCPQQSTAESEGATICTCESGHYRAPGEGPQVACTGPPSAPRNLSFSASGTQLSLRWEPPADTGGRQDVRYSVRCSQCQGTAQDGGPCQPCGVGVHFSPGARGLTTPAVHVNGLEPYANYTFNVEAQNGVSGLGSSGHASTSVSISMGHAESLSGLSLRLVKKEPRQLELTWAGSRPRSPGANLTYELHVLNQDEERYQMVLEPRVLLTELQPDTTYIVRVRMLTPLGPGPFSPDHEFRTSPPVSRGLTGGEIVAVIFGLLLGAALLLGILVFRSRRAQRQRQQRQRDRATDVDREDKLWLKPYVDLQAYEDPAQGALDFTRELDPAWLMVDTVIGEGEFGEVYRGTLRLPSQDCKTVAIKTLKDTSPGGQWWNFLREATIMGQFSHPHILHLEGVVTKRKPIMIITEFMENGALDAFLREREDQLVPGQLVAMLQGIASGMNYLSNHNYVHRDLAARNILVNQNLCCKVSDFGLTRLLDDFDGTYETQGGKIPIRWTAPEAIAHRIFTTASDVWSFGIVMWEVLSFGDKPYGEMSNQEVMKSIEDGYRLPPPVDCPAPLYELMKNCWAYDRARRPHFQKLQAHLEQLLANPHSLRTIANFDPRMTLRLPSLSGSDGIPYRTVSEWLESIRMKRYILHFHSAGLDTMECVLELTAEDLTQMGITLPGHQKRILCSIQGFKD

SGK2 = SGK2 (Homo sapiens, UniProt Q9HBY8); assay: biochemical; details: read-out: % enzyme activity, 1 μM; Run 1, Run 2
PAK6 = PAK6 (Homo sapiens, UniProt Q9NQU5); details: 1 μM; Run 1, Run 2
ERBB4/HER4 = ERBB4/HER4 (Homo sapiens, UniProt Q15303); assay: biochemical; details: read-out: % enzyme activity, 1 μM; Run 1, Run 2
EPHA2 = EPHA2 (Homo sapiens, UniProt P29317); details: 1 μM; Run 1, Run 2
IKKa/CHUK = biological target: T2, IKKa/CHUK (Homo sapiens, UniProt O15111); assay: biochemical; details: read-out: % enzyme activity, 1 μM; Run 1, Run 2
T2 sequence (O15111 1-745): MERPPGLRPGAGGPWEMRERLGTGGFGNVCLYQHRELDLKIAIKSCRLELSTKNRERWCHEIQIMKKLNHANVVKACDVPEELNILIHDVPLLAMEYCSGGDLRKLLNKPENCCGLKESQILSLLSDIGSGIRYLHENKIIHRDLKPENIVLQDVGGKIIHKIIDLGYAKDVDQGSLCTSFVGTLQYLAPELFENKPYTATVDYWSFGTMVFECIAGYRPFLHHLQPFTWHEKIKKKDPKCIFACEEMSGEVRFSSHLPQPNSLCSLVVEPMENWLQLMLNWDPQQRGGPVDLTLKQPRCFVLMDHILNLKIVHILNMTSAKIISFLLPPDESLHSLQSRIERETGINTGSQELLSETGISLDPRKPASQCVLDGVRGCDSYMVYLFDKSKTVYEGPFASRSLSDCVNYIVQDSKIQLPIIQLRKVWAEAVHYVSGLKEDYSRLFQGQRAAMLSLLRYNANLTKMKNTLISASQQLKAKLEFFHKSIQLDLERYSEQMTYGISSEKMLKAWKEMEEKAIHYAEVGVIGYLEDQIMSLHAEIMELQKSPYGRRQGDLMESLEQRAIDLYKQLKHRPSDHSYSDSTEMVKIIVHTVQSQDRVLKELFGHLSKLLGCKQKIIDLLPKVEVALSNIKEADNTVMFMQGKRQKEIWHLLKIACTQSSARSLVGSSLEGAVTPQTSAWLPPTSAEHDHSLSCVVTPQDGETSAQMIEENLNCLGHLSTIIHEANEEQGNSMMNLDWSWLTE

TESK1 = TESK1 (Homo sapiens, UniProt Q15569); assay: biochemical; details: read-out: % enzyme activity, 1 μM; Run 1, Run 2
CAMKK1 = CAMKK1 (Homo sapiens, UniProt Q8N5S9); assay: biochemical; details: read-out: % enzyme activity, 1 μM; Run 1, Run 2
CYP3A4 = CYP3A4 (Homo sapiens, UniProt P08684); details: human liver microsomes
BRAF = biological target: T3, BRAF (Homo sapiens, UniProt P15056); assay: 375-member kinase panel; type: biochemical; details: Run 1, Run 2; for % enzyme activity: 1 μM; for remaining activity at 1 µM: read-out: % enzyme activity, 1 μM
T3 construct: purchased Reaction Biology Corporation

MYO3A = MYO3A (Homo sapiens, UniProt Q8NEV4); details: 1 μM; Run 1, Run 2
MKK4 = biological target: T4, MKK4 (Homo sapiens, UniProt P45985); assay: biochemical; details: read-out: % enzyme activity, 1 μM; Run 1, Run 2
T4 sequence (P45985 1-399): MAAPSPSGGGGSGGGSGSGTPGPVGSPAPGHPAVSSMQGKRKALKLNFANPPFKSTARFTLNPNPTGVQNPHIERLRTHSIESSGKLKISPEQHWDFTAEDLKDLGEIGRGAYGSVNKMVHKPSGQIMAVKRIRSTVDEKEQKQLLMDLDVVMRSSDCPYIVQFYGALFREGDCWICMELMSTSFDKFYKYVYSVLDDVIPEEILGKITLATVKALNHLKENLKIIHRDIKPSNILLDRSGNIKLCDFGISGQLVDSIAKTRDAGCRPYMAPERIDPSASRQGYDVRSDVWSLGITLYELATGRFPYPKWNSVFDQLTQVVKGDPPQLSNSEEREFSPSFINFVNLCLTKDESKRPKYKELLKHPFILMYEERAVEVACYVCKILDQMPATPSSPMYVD

[1] = read-out: CYP3A4-Midazolam IC50, substrate midazolam
[2] = read-out: CYP3A4-Testosterone IC50, substrate testosterone

Sequence of CYP3A4 (P08684 whole entry): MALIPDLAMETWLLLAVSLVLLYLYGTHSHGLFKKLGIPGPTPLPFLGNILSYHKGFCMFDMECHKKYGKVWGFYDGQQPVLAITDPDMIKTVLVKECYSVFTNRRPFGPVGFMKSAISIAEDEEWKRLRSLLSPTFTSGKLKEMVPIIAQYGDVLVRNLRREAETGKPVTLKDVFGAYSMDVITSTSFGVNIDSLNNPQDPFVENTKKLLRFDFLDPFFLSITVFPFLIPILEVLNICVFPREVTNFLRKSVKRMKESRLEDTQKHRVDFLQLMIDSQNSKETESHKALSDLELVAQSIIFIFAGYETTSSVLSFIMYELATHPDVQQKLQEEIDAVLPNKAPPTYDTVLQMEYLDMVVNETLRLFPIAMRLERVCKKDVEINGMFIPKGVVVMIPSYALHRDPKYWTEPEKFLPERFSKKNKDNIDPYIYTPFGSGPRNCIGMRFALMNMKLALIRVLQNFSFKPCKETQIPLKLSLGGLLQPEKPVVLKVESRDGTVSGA
T3 sequence (P15056 whole entry): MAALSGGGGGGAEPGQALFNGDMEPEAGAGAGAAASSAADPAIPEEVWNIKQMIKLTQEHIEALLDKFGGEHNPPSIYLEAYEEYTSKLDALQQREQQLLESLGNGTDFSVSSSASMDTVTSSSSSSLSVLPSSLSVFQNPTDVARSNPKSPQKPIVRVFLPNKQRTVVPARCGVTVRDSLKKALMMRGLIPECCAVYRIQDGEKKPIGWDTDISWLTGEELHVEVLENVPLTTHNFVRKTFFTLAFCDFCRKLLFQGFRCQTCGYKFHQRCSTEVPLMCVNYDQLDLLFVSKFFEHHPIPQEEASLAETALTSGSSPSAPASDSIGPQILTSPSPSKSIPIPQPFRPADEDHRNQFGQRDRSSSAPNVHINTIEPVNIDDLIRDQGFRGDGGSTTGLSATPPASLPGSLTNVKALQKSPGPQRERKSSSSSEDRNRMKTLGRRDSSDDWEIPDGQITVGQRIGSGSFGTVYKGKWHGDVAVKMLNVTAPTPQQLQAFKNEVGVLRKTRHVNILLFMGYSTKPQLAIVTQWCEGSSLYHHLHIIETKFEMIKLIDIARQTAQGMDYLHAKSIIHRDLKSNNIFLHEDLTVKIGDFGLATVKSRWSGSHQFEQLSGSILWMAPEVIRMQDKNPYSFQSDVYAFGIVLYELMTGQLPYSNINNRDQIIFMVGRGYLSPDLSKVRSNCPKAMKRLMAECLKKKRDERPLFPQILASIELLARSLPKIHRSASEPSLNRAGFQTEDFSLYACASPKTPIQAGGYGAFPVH
Sequence of PAK6 (Q9NQU5 whole entry): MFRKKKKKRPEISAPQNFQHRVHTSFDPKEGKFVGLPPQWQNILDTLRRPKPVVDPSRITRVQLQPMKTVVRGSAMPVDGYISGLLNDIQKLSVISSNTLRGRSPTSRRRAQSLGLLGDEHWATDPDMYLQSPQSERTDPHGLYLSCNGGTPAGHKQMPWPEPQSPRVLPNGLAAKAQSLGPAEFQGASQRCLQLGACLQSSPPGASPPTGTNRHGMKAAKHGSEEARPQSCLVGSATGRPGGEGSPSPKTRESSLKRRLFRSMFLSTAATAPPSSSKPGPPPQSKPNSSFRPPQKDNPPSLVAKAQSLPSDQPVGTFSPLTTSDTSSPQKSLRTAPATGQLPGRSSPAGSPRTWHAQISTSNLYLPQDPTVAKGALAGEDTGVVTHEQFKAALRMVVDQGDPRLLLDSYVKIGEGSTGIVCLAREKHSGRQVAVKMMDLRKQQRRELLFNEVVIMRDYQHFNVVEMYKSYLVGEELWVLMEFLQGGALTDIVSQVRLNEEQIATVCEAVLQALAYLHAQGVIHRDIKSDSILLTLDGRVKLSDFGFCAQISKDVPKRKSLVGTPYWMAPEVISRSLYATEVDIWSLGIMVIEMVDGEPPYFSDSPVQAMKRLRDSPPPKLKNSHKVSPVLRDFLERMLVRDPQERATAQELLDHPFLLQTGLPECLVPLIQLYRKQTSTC
Sequence of ERBB4/HER4 (Q15303 26-1308): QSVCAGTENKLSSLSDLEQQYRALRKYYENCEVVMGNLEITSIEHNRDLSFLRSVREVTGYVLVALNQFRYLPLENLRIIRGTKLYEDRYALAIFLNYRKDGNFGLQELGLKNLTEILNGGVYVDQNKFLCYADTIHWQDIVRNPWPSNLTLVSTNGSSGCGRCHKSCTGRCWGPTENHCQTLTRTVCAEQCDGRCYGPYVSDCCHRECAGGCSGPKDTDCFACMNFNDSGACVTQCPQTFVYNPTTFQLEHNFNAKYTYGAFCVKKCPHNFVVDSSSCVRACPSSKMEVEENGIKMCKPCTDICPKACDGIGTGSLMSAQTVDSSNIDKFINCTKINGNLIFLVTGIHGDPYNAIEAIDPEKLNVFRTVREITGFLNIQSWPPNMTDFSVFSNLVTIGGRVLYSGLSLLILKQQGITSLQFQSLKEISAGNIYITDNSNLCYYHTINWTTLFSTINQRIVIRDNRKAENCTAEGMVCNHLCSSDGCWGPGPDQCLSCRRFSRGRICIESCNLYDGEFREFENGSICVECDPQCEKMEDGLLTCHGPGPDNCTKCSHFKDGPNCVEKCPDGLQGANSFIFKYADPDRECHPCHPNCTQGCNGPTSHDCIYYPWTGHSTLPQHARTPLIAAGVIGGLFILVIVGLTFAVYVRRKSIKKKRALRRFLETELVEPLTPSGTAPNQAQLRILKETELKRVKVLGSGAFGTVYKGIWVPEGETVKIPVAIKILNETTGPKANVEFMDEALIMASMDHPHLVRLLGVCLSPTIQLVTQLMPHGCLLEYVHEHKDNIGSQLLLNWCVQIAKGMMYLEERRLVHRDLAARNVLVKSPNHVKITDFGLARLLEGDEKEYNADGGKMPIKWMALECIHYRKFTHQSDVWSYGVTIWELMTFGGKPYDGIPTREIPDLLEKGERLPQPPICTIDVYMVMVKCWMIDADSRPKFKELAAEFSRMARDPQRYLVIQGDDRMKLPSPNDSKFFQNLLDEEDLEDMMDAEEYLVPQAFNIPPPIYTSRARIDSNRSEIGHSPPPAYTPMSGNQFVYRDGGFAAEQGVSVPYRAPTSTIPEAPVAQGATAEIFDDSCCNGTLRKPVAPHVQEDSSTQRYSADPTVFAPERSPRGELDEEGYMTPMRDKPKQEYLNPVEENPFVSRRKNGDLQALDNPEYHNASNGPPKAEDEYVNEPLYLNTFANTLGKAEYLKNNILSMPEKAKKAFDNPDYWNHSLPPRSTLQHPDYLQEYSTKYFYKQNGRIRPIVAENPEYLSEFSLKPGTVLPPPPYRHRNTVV
Sequence of MYO3A (Q8NEV4 whole entry): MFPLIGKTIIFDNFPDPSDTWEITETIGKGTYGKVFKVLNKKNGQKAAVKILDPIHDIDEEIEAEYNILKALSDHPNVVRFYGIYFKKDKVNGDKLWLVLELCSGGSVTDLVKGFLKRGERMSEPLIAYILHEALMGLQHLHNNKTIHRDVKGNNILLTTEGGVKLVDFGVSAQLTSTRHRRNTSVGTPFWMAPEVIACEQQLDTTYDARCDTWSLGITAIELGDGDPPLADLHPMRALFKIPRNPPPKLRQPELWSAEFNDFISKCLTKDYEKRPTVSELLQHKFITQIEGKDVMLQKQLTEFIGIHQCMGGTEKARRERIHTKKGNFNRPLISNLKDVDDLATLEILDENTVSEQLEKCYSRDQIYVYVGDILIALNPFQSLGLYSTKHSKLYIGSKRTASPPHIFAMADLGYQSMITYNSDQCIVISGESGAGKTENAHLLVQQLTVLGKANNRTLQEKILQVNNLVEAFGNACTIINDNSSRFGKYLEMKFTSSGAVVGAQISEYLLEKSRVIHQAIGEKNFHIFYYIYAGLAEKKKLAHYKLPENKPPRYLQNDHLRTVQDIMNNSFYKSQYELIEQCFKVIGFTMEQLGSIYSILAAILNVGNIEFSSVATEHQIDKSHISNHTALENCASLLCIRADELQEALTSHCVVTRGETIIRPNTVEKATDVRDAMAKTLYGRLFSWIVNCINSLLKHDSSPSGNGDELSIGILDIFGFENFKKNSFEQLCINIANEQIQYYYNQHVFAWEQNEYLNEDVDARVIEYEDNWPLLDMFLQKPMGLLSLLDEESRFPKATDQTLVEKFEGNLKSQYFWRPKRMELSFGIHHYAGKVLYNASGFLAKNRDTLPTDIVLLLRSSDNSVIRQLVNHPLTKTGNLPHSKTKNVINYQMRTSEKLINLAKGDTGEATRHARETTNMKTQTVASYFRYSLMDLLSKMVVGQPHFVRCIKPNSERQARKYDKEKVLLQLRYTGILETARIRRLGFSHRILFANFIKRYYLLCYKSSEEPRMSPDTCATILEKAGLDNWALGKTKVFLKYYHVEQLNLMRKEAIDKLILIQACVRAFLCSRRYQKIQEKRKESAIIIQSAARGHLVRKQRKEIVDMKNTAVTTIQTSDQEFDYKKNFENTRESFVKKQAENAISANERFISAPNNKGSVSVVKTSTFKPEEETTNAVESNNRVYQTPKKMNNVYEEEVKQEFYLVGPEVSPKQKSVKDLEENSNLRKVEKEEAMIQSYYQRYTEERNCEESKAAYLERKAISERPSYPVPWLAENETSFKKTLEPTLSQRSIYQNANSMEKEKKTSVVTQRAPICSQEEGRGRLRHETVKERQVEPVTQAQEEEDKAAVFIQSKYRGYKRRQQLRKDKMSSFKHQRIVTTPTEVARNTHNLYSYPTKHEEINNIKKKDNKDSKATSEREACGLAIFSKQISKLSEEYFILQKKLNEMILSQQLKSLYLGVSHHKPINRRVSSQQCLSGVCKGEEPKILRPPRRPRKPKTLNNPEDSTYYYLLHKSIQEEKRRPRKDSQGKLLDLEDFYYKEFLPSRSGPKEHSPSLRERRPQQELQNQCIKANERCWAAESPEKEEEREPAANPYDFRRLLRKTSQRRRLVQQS

SMILES | % enzyme activity (PAK4) | % enzyme activity (EPHA1) | remaining activity at 1 µM (SGK2) | % enzyme activity (PAK6) | remaining activity at 1 µM (ERBB4/HER4) | % enzyme activity at 1 μM (TNK1) | % enzyme activity (EPHA2) | remaining activity at 1 µM (IKKa/CHUK) | remaining activity at 1 µM (TESK1) | remaining activity at 1 µM (CAMKK1) | IC50 (CYP3A4; [1]) | IC50 (CYP3A4; [2]) | % enzyme activity (BRAF) | remaining activity at 1 µM (BRAF) | % enzyme activity at 1 μM (TAOK1) | % enzyme activity (MYO3A) | CYP inhibition (CYP3A4-Midazolam) | remaining activity at 1 µM (MKK4)
COc1cc(-c2cncc(-c3ccc(N4CCN(C)CC4)cc3)c2C)cc(F)c1C(N)=O [Compound 26a, 2-Fluoro-6-methoxy-4-(4-methyl-5-(4-(4-methylpiperazin-1-yl)phenyl)pyridin-3-yl)benzamide] | 98.21% | 96.36% | 102% | 97.22% | 99.5% | 105% and 99.5% | 97.38% | 83.3% | 114% | 94.7% | > 50 µM | > 50 µM | 28.77% | 28.8% | 60.3% and 60.2% | 81.86% | > 50 µM | 101%
COc1cc(-c2cncc(-c3ccc(N4C[C@@H](C)N(C)[C@@H](C)C4)cc3)c2C)cc(F)c1C(N)=O [Compound 26c, 2-Fluoro-6-methoxy-4-(4-methyl-5-(4-((3R,5S)-3,4,5-trimethylpiperazin-1-yl)phenyl)pyridin-3-yl)benzamide] | 98.82% | 89.93% | 103% | 95.67% | 94.9% | 98.6% and 98.2% | 104.56% | 87.4% | 105% | 94% | > 50 µM | > 50 µM | 40.52% | 41.1% | 62.2% and 60.6% | 94.68% | > 50 µM | 94.6%
